# According to PubChem BioAssay AID1259407 (Chemical Carcinogenesis Research Information System (CCRIS), 2018):
# The source made the active and inactive calls. The rule behind the calls is not given here.
# System: CCRIS mutagenicity, Ames/micronucleus/aberration tests
# Assay: CCRIS mutagenicity studies
# [1] = Test System: AMES SALMONELLA TYPHIMURIUM, Strain/Indicator: TA98, Metabolic Activation: HAMSTER, LIVER, S-9, AROCLOR 1254 (10%), Method: PREINCUBATION
# [2] = Test System: AMES SALMONELLA TYPHIMURIUM, Strain/Indicator: TA98, Metabolic Activation: NONE, Method: PREINCUBATION
# [3] = Test System: AMES SALMONELLA TYPHIMURIUM, Strain/Indicator: TA98, Metabolic Activation: RAT, LIVER, S-9, AROCLOR 1254 (10%), Method: PREINCUBATION
# [4] = Test System: AMES SALMONELLA TYPHIMURIUM, Strain/Indicator: TA100, Metabolic Activation: HAMSTER, LIVER, S-9, AROCLOR 1254 (10%), Method: PREINCUBATION
# [5] = Test System: AMES SALMONELLA TYPHIMURIUM, Strain/Indicator: TA100, Metabolic Activation: NONE, Method: PREINCUBATION
# [6] = Test System: AMES SALMONELLA TYPHIMURIUM, Strain/Indicator: TA100, Metabolic Activation: RAT, LIVER, S-9, AROCLOR 1254 (10%), Method: PREINCUBATION
# [7] = Test System: AMES SALMONELLA TYPHIMURIUM, Strain/Indicator: TA1535, Metabolic Activation: HAMSTER, LIVER, S-9, AROCLOR 1254 (10%), Method: PREINCUBATION
# [8] = Test System: AMES SALMONELLA TYPHIMURIUM, Strain/Indicator: TA1535, Metabolic Activation: NONE, Method: PREINCUBATION
# [9] = Test System: AMES SALMONELLA TYPHIMURIUM, Strain/Indicator: TA1535, Metabolic Activation: RAT, LIVER, S-9, AROCLOR 1254 (10%), Method: PREINCUBATION
# [10] = Test System: AMES SALMONELLA TYPHIMURIUM, Strain/Indicator: TA1537, Metabolic Activation: HAMSTER, LIVER, S-9, AROCLOR 1254 (10%), Method: PREINCUBATION
# [11] = Test System: AMES SALMONELLA TYPHIMURIUM, Strain/Indicator: TA1537, Metabolic Activation: NONE, Method: PREINCUBATION
# [12] = Test System: AMES SALMONELLA TYPHIMURIUM, Strain/Indicator: TA1537, Metabolic Activation: RAT, LIVER, S-9, AROCLOR 1254 (10%), Method: PREINCUBATION
# [13] = Test System: AMES SALMONELLA TYPHIMURIUM, Strain/Indicator: TA102, Metabolic Activation: NONE, Method: STANDARD PLATE
# [14] = Test System: AMES SALMONELLA TYPHIMURIUM, Strain/Indicator: TA100, Metabolic Activation: NONE, Method: STANDARD PLATE
# [15] = Test System: AMES SALMONELLA TYPHIMURIUM, Strain/Indicator: TA100, Metabolic Activation: RAT, LIVER, S-9, AROCLOR 1254, Method: PREINCUBATION
# [16] = Test System: AMES SALMONELLA TYPHIMURIUM, Strain/Indicator: TA97, Metabolic Activation: NONE, Method: PREINCUBATION
structure (smiles),measurement,setting,value
COP(=S)(OC)SCn1nnc2ccccc2c1=O,mutagenic call,"End Point: In vitro Chromosomal aberrations, Test System: Human lymphocytes, Metabolic Activation: None",inactive; negative; lymphocytes from 1 male and 1 female; azinphos-methyl purity 92.9%
same,mutagenic call,"End Point: In vitro Chromosomal aberrations, Test System: Human lymphocytes, Metabolic Activation: Rat, liver, S-9",active; positive (structural and ploidy); lymphocytes from 1 male and 1 female; azinphos
same,mutagenic call,[1],inactive; negative
same,mutagenic call,[2],inactive; negative
same,mutagenic call,[3],active; positive
same,mutagenic call,[4],inactive; negative
same,mutagenic call,[5],inactive; negative
same,mutagenic call,[6],inactive; negative
same,mutagenic call,[7],inactive; negative
same,mutagenic call,[8],inactive; negative
same,mutagenic call,[9],inactive; negative
same,mutagenic call,[10],inactive; negative
same,mutagenic call,[11],inactive; negative
same,mutagenic call,[12],inactive; negative
CCCNC(=O)C=Cc1ccc([N+](=O)[O-])o1,mutagenic call,[2],active; positive
CCOP(=O)(OCC)OCC,mutagenic call,[1],inactive; negative
same,mutagenic call,[2],inactive; negative
same,mutagenic call,[3],inactive; negative
same,mutagenic call,[4],inactive; negative
same,mutagenic call,[5],inactive; negative
same,mutagenic call,[6],inactive; negative
same,mutagenic call,[13],inactive; negative
same,mutagenic call,[7],inactive; negative
same,mutagenic call,[8],inactive; negative
same,mutagenic call,[9],inactive; negative
same,mutagenic call,[10],inactive; negative
same,mutagenic call,[11],inactive; negative
same,mutagenic call,[12],inactive; negative
same,mutagenic call,"Test System: AMES SALMONELLA TYPHIMURIUM, Strain/Indicator: TA2638, Metabolic Activation: NONE, Method: STANDARD PLATE",inactive; negative
same,mutagenic call,"Test System: E. COLI, Strain/Indicator: WP2 (PKM101), Metabolic Activation: NONE, Method: STANDARD PLATE",inactive; negative
same,mutagenic call,"Test System: E. COLI, Strain/Indicator: WP2 UVRA (PKM101), Metabolic Activation: NONE, Method: STANDARD PLATE",inactive; negative
[CH3][Sn]([CH3])([CH3])[Cl],mutagenic call,"Test System: AMES SALMONELLA TYPHIMURIUM, Strain/Indicator: TA98, Metabolic Activation: NONE, Method: SUSPENSION/PLATE",inactive; negative
same,mutagenic call,"Test System: AMES SALMONELLA TYPHIMURIUM, Strain/Indicator: TA100, Metabolic Activation: NONE, Method: SUSPENSION/PLATE",inactive; negative
OC/C=C/Cl,mutagenic call,[14],inactive; negative
same,mutagenic call,"Test System: AMES SALMONELLA TYPHIMURIUM, Strain/Indicator: TA100, Metabolic Activation: RAT, LIVER, S-9, PCB, Method: STANDARD PLATE",active; positive
Cc1cc2ccccc2c2cc3c(cc12)C=C[C@H](O)[C@H]3O,mutagenic call,[15],active; positive
Oc1ccc(-c2ccc(O)cc2)cc1,mutagenic call,[16],inactive; negative
same,mutagenic call,"Test System: AMES SALMONELLA TYPHIMURIUM, Strain/Indicator: TA97, Metabolic Activation: RAT, LIVER, S-9, AROCLOR 1254, Method: PREINCUBATION",inactive; negative
same,mutagenic call,[2],inactive; negative
same,mutagenic call,"Test System: AMES SALMONELLA TYPHIMURIUM, Strain/Indicator: TA98, Metabolic Activation: RAT, LIVER, S-9, AROCLOR 1254, Method: PREINCUBATION",inactive; negative
same,mutagenic call,[5],inactive; negative
same,mutagenic call,[15],inactive; negative
same,mutagenic call,"Test System: AMES SALMONELLA TYPHIMURIUM, Strain/Indicator: TA102, Metabolic Activation: NONE, Method: PREINCUBATION",inactive; negative
same,mutagenic call,"Test System: AMES SALMONELLA TYPHIMURIUM, Strain/Indicator: TA102, Metabolic Activation: RAT, LIVER, S-9, AROCLOR 1254, Method: PREINCUBATION",inactive; negative
same,mutagenic call,"Test System: AMES SALMONELLA TYPHIMURIUM, Strain/Indicator: TA104, Metabolic Activation: NONE, Method: PREINCUBATION",inactive; negative
same,mutagenic call,"Test System: AMES SALMONELLA TYPHIMURIUM, Strain/Indicator: TA104, Metabolic Activation: RAT, LIVER, S-9, AROCLOR 1254, Method: PREINCUBATION",inactive; negative
same,mutagenic call,[8],inactive; negative
same,mutagenic call,"Test System: AMES SALMONELLA TYPHIMURIUM, Strain/Indicator: TA1535, Metabolic Activation: RAT, LIVER, S-9, AROCLOR 1254, Method: PREINCUBATION",inactive; negative
same,mutagenic call,"Test System: CHINESE HAMSTER V-79, Strain/Indicator: V-79/6-THIOGUANINE, Metabolic Activation: NONE",inactive; negative
O.O.O.O.O.O.O.[Cl-].[Cl-].[Cl-].[Fe+3],mutagenic call,[13],inactive; negative
same,mutagenic call,"Test System: Mouse lymphoma, Strain/Indicator: L5178Y (tk+/tk-), Metabolic Activation: None, Method: Suspension/plate",inactive; negative
same,mutagenic call,"Test System: Mouse lymphoma, Strain/Indicator: L5178Y (tk+/tk-), Metabolic Activation: Rat, Liver, S-9, Aroclor 1254, Method: Suspension/plate",inactive; inconclusive (previous evaluation: negative)
CS(=O)(=O)c1ccc(O)c(N)c1,mutagenic call,"Test System: AMES SALMONELLA TYPHIMURIUM, Strain/Indicator: TA97, Metabolic Activation: HAMSTER, LIVER, S-9, AROCLOR 1254 (10 OR 30%), Method: PREINCUBATION",inactive; negative
same,mutagenic call,[16],inactive; negative
same,mutagenic call,"Test System: AMES SALMONELLA TYPHIMURIUM, Strain/Indicator: TA97, Metabolic Activation: RAT, LIVER, S-9, AROCLOR 1254 (10 OR 30%), Method: PREINCUBATION",inactive; negative
same,mutagenic call,"Test System: AMES SALMONELLA TYPHIMURIUM, Strain/Indicator: TA98, Metabolic Activation: HAMSTER, LIVER, S-9, AROCLOR 1254 (10 OR 30%), Method: PREINCUBATION",inactive; negative
same,mutagenic call,[2],inactive; negative
same,mutagenic call,"Test System: AMES SALMONELLA TYPHIMURIUM, Strain/Indicator: TA98, Metabolic Activation: RAT, LIVER, S-9, AROCLOR 1254 (10 OR 30%), Method: PREINCUBATION",inactive; negative
same,mutagenic call,"Test System: AMES SALMONELLA TYPHIMURIUM, Strain/Indicator: TA100, Metabolic Activation: HAMSTER, LIVER, S-9, AROCLOR 1254 (10 OR 30%), Method: PREINCUBATION",inactive; negative
same,mutagenic call,[5],inactive; negative
same,mutagenic call,"Test System: AMES SALMONELLA TYPHIMURIUM, Strain/Indicator: TA100, Metabolic Activation: RAT, LIVER, S-9, AROCLOR 1254 (10 OR 30%), Method: PREINCUBATION",inactive; negative
same,mutagenic call,"Test System: AMES SALMONELLA TYPHIMURIUM, Strain/Indicator: TA1535, Metabolic Activation: HAMSTER, LIVER, S-9, AROCLOR 1254 (10 OR 30%), Method: PREINCUBATION",inactive; negative
same,mutagenic call,[8],inactive; negative
same,mutagenic call,"Test System: AMES SALMONELLA TYPHIMURIUM, Strain/Indicator: TA1535, Metabolic Activation: RAT, LIVER, S-9, AROCLOR 1254 (10 OR 30%), Method: PREINCUBATION",inactive; negative
same,mutagenic call,"Test System: AMES SALMONELLA TYPHIMURIUM, Strain/Indicator: TA1537, Metabolic Activation: HAMSTER, LIVER, S-9, AROCLOR 1254 (10 OR 30%), Method: PREINCUBATION",inactive; negative
same,mutagenic call,[11],inactive; negative
same,mutagenic call,"Test System: AMES SALMONELLA TYPHIMURIUM, Strain/Indicator: TA1537, Metabolic Activation: RAT, LIVER, S-9, AROCLOR 1254 (10 OR 30%), Method: PREINCUBATION",inactive; negative
CC1(C)CC(C(N)=O)C(C)(C)N1[O] (stereo not drawn),mutagenic call,[14],inactive; negative
